How the values were obtained:
Type in all cases: in vivo
[1] = tested on: Basil (cultivar: Sweet Basil; Takii); experiment: Test Example 10: basil seedling spraying, low-temperature stress, fresh weight and damage score; settings: for Fresh weight of above-ground part: low-temperature stress 3.0° C., non-treated 0.34 g; for Damage score: score 0 (completely killed) to 100 (survived without any damage), survived leaf area, non-treated 17
Procedure: Basil seeds (cultivar: Sweet Basil; Takii) were sown in the culture soil (AISAI) in plastic pots (55 mm in diameter×58 mm in height) and grown for 24 days under the following conditions to obtain a basil seedling per pot: temperature, 27° C.; humidity, 50 to 75%; illuminance, about 6,000 lux; day length, 16 hours.
Compound (1b). was dissolved in dimethylsulfoxide (DMSO) to obtain a DMSO solution of compound (lb) at a 1,000-fold concentration relative to the test concentration. This DMSO solution of compound (1b) was 1,000-fold diluted with water. Then Triton X-100 was added as a surfactant to a final concentration of 0.1%. The spray solution thus prepared was applied in a sufficient amount (15 ml per 3 pots) by means of a handspray.
As a control, a spray solution without compound (ib) was prepared and then sprayed to the non-treated group. The plants were further grown for 1 day under the following conditions: temperature, 27° C.; humidity, 50 to 75%; illuminance, about 6,000 lux; day length, 16 hours.
Subsequently, the basil seedlings were placed in a phytotron under the following conditions, to expose the plants to low-temperature stress. • Conditions: “temperature, 3.0° C.; illuminance, 800 lux; • humidity, 50 to 80%”
The plants were further grown for another 2 days under the following conditions: temperature, 27° C.; humidity, 50 to 75%, illuminance, about 6,000 lux; day length, 16 hours.
The percentage of the leaf area of the portions of true leaves of the basil seedlings which survived without being damaged was scored as follows: completely killed with 0% of the survived leaf area to the total leaf area: 0; survived without any damage with 100% of the survived leaf area to the total leaf: 100; and scored from 0 to 100 by increment of 1 by visual observation. The scores of three plants were averaged to determine the damage score. The aerial part of the basil seedlings was removed to measure the fresh weight of the above-ground part. The average weight of three individuals was recorded as the fresh weight of the above-ground part.

[2] = tested on: Corn (cultivar: PIONEER 31N27); experiment: Test Example 8: corn seedling spraying, low-temperature stress, fresh weight of above-ground part; settings: for Average fresh weight of above-ground part: low-temperature stress 2±2° C. 5 days, non-treated 0.79 g
Procedure: Corn seeds (cultivar: PIONEER 31N27) were sown in the culture soil (AISAI) in plastic pots (55 mm in diameter×58 mm in height) and grown for a week under the following conditions to obtain corn seedlings: temperature, 20 to 25° C.; humidity, 50 to 75%; illuminance, about 5,000 lux; day length, 16 hours.
A flowable formulation of the compound (1b) was obtained by adding 120 mg of a mixture of white carbon and a polyoxyethylene alkyl ether sulfate ammonium salt (weight ratio of 1:1) and 300 μl of water to 0.5 mg of compound (1b), followed by fine grinding by a wet grinding method. This flowable formulation was diluted with 50 ml of water, to which RINO (manufactured by NIHON NOHYAKU) was added as a sticker to 5,000-fold dilution, whereby a spray solution was obtained. A sufficient amount of the spray solution was applied to the corn seedlings by using an automatic spraying machine. As a control, a flowable formulation without compound (1b) was prepared and then sprayed to the non-treated group.
Subsequently, the corn seedlings treated with the spray solution were placed in a phytotron under the following conditions in order to expose the plants to low-temperature stress for 5 days. • Conditions: “temperature, 2±2° C.; lighting hour, 16 hours; • illuminance, about 5,000 lux; humidity, 35 to 80%”
The plants were then grown for another 4 days under the following conditions: temperature, 25 to 28° C.; humidity, 50 to 75%, illuminance, about 5,000 lux; day length, 16 hours. Then the fresh weight of the above-ground part of the plants was measured. The experiment was performed in four replications for each treatment condition and the average weight per individual was calculated.

[3] = tested on: corn seeds (cultivar: Kuromochi); experiment: Test Example 6: corn seed coating, low-temperature stress, fresh weight of above-ground part; settings: for Average fresh weight of above-ground part: low-temperature stress 3±2° C. 7 days, non-treated 1.18 g
Procedure: A blank slurry solution containing 5% (V/V) color coat red (Becker Underwood, Inc.), 5% (V/V) CF-Clear (Becker Underwood, Inc.) and 0.4% Maxim XL (Syngenta) was prepared. […] In a 50-ml centrifuge tube (manufactured by BD Japan), 0.48 ml of the slurry solution was placed for each 20 g of corn seeds (cultivar: Kuromochi) and stirred until the solution was dried, thereby coating the seeds. As a control, seeds were coated with the blank slurry solution and used for a non-treated group. Two treated corn seeds were sown in the culture soil (AISAI) in each plastic pot (55 mm in diameter×58 mm in height) and grown for 4 days under the following conditions: temperature, 27° C.; illuminance, 5,000 lux; day length, 16 hours. These were subjected to the test. The pots at day 4 after the sowing were placed in a phytotron under the following conditions in order to expose the plants to low-temperature stress for 7 days. Conditions: “temperature, 3±2° C.; day length, 16 hours; illuminance, about 5,000 lux; humidity, 35 to 80%” The plants were grown for another 7 days under the following conditions: temperature, 27° C.; humidity, 50 to 75%, illuminance, about 5,000 lux; day length, 16 hours. Then the fresh weight of the above-ground part of the plants was measured. The experiment was performed in four replications for each treatment condition and the average weight per individual was calculated.

**Q.** For `CNC(=O)C(OC)c1ccccc1COc1cc(C)ccc1C` (racemic) [Compound (1b), N-methyl-2-[2-(2,5-dimethylphenoxy)methyl]phenyl-2-methoxyacetamide], which “Fresh weight of above-ground part” value ([1]; spray 10 ppm) is on record?
**A.** The value was 0.62 g.

**Q.** And the Damage score ([1]; spray 10 ppm)?
**A.** Its Damage score is 30.

**Q.** What about the “Fresh weight of above-ground part” value ([1]; spray 30 ppm) of the same molecule?
**A.** The value was 0.72 g.

**Q.** What about the Damage score ([1]; spray 30 ppm) of the same molecule?
**A.** Its Damage score is 38.

**Q.** What about the “Fresh weight of above-ground part” value ([1]; spray 100 ppm) of the same molecule?
**A.** The value was 0.92 g.

**Q.** What about the Damage score ([1]; spray 100 ppm) of the same molecule?
**A.** Its Damage score is 81.

**Q.** What about the “Fresh weight of above-ground part” value ([1]; spray 250 ppm) of the same molecule?
**A.** The value was 0.94 g.

**Q.** And the Damage score ([1]; spray 250 ppm)?
**A.** The Damage score was 68.

**Q.** And the “fresh weight of the above-ground part as compared with the non-treated group” value ([2]; plants exposed to low-temperature stress, concentration range of 10 ppm to 100 ppm)?
**A.** The value was “increased”.

**Q.** What about the “Average fresh weight of above-ground part” value (“Average fresh weight” for short) ([2]; spray 10 ppm) of the same molecule?
**A.** Its value is 0.89 g.

**Q.** What about the “Average fresh weight” value ([2]; spray 30 ppm) of the same molecule?
**A.** Its value is 0.94 g.

**Q.** And the “Average fresh weight” value ([2]; spray 100 ppm)?
**A.** The value was 0.90 g.

**Q.** And the “Average fresh weight” value ([3]; seed coating 10 g)?
**A.** The value was 1.33 g.

**Q.** What about the “Average fresh weight” value ([3]; seed coating 25 g) of the same molecule?
**A.** Its value is 1.30 g.

**Q.** And the “Average fresh weight” value ([3]; seed coating 50 g)?
**A.** The value was 1.29 g.

**Q.** What about the “Average fresh weight” value ([3]; seed coating) of the same molecule?
**A.** Its value is 1.34 g.

**Q.** And the “fresh weight of the above-ground part as compared with the control group” value ([3]; plants exposed to low-temperature stress, 10 g to 50 g per 100 kg of seeds)?
**A.** The value was “an increase”.

From patent US20130324413A1, “METHOD FOR PROMOTING PLANT GROWTH” (SUMITOMO CHEMICAL COMPANY, LIMITED, priority 2011, published 2013)
